Measurements from US20240343740A1, “MACROCYCLIC GLUCAGON-LIKE PEPTIDE 1 RECEPTOR AGONISTS” (Eli Lilly and Company, priority 2021, published 2024).

Columns and labels:
human GLP-1R [1] = target: T1, human GLP-1R (Homo sapiens, UniProt P43220); experiment: Human GLP-1 Receptor HEK293 cell cAMP assay, 581 fmol/mg GLP-1R expression density; assay type: cell-based; design: expressed in transfected cells; host or cells: HEK293 clonal cell line; settings: HEK293 cell line with 581 fmol/mg expression density of GLP-1R; for EC50: geometric mean, read-out: EC50 nM (SEM, n), intracellular cAMP response, relative EC50; for Emax: percent of maximal response to GLP-1(7-36)NH2, arithmetic mean, read-out: Emax % (SEM, n), intracellular cAMP response
In short: (§1)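 HEK293 clonal lines expressing human GLP-1R, 20-point compound curves, 30 min at 37° C in DMEM with 0.1% casein, 250 μM IBMX, 0.5% DMSO. cAMP by HTRF, converted via standard curve to % of maximal human GLP-1(7-36)NH2 response; relative EC50 and Emax from four-parameter logistic fit.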

human GLP-1R [2] = target: T1, human GLP-1R; experiment: Human GLP-1 Receptor HEK293 cell cAMP assay, 104 fmol/mg GLP-1R expression density; assay type: cell-based; design: expressed in transfected cells; host or cells: HEK293 clonal cell line; settings: HEK293 cell line with 104 fmol/mg expression density of GLP-1R; for EC50: geometric mean, read-out: EC50 nM (SEM, n), intracellular cAMP response, relative EC50; for Emax: percent of maximal response to GLP-1(7-36)NH2, arithmetic mean, read-out: Emax % (SEM, n), intracellular cAMP response
In short: as §1

T1 sequence (P43220 24-463): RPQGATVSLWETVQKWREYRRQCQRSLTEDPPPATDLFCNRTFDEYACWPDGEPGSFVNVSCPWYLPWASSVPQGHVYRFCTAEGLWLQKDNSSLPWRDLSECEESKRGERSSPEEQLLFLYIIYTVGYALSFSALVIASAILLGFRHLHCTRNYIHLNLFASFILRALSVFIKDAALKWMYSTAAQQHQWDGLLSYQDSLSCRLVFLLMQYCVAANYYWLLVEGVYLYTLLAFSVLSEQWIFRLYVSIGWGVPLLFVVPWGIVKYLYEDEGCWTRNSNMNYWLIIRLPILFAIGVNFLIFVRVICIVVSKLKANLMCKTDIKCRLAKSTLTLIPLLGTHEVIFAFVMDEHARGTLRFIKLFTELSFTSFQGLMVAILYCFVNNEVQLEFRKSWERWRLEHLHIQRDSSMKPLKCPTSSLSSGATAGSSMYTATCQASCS

| Structure (SMILES) | EC50 (human GLP-1R [1]) | Emax (human GLP-1R [1]) | EC50 (human GLP-1R [2]) | Emax (human GLP-1R [2]) |
| --- | --- | --- | --- | --- |
| O=C(O)c1ccc2nc(Cc3ccc4cc3OCCCc3cc(-c5cnn(C6CC6)c5)ccc3COc3cccc-4n3)n(C[C@@H]3CCO3)c2c1 [Example 35, (S)-2-((5^4-(1-Cyclopropyl-1H-pyrazol-4-yl)-3,9-dioxa-2(2,6)-pyridina-1(1,3),5(1,2)-dibenzenacyclononaphane-1^4-yl)methyl)-1-(oxetan-2-ylmethyl)-1H-benzo[d]imidazole-6-carboxylic acid] | 95.8 nM | 112% | 385 nM | 88.1% |
| COCCOc1cc(C(=O)O)cc2c1nc(Cc1ccc3cc1OCCCc1cc(C#N)ccc1COc1cccc-3n1)n2C[C@@H]1CCO1 [Example 24, (S)-2-((5^4-Cyano-3,9-dioxa-2(2,6)-pyridina-1(1,3),5(1,2)-dibenzenacyclononaphane-1^4-yl)methyl)-4-(2-methoxyethoxy)-1-(oxetan-2-ylmethyl)-1H-benzo[d]imidazole-6-carboxylic acid] | 2.34 nM | 116% | 6.6 nM | 89.6% |
| COCCOc1cc(C(=O)O)cc2c1nc(Cc1ccc3cc1COCCc1cc(ccc1C#N)COc1cccc-3n1)n2C[C@@H]1CCO1 [Example 65, (S)-2-((5^4-Cyano-3,8-dioxa-2(2,6)-pyridina-1,5(1,3)-dibenzenacyclononaphane-1^4-yl)methyl)-4-(2-methoxyethoxy)-1-(oxetan-2-ylmethyl)-1H-benzo[d]imidazole-6-carboxylic acid] | 1.86 nM | 110% | 4.62 nM | 98.2% |
| O=C(O)c1ccc2nc(Cc3ccc4cc3OCCCc3cc(CO)ccc3COc3cccc-4n3)n(C[C@@H]3CCO3)c2c1 [Example 25, (S)-2-((5^4-(Hydroxymethyl)-3,9-dioxa-2(2,6)-pyridina-1(1,3),5(1,2)-dibenzenacyclononaphane-1^4-yl)methyl)-1-(oxetan-2-ylmethyl)-1H-benzo[d]imidazole-6-carboxylic acid] | 317 nM | 98.3% | 703 nM | 62.1% |
| COc1cc(-c2ccc3c(c2)CCCOc2cc(ccc2Cc2nc4ccc(C(=O)O)cc4n2C[C@@H]2CCO2)-c2cccc(n2)OC3)ccn1 [Example 34, (S)-2-((5^4-(2-Methoxypyridin-4-yl)-3,9-dioxa-2(2,6)-pyridina-1(1,3),5(1,2)-dibenzenacyclononaphane-1^4-yl)methyl)-1-(oxetan-2-ylmethyl)-1H-benzo[d]imidazole-6-carboxylic acid] | 167 nM | 110% | 616 nM | 82.3% |
| COCCOc1cc(C(=O)O)cc2c1nc(Cc1cc(F)c3cc1COCc1cc(C#N)ccc1COc1cccc-3n1)n2C[C@@H]1CCO1 [Example 68, (S)-2-((5^4-Cyano-1^6-fluoro-3,7-dioxa-2(2,6)-pyridina-1(1,3),5(1,2)-dibenzenacyclooctaphane-1^4-yl)methyl)-4-(2-methoxyethoxy)-1-(oxetan-2-ylmethyl)-1H-benzo[d]imidazole-6-carboxylic acid] | 6.82 nM | 115% | 8.72 nM | 98.5% |
| COc1cc(C(=O)O)cc2c1nc(Cc1cc(C)c3cc1OCCCc1cc(F)ccc1COc1cccc-3n1)n2C[C@@H]1CCO1 [Example 22, (S)-4-Methoxy-2-((1^6-methyl-5^4-(fluoro)-3,9-dioxa-2(2,6)-pyridina-1(1,3),5(1,2)-dibenzenacyclononaphane-1^4-yl)methyl)-1-(oxetan-2-ylmethyl)-1H-benzo[d]imidazole-6-carboxylic acid] | 2.86 nM | 112% | 10.6 nM | 80.9% |
| COc1cc(C(=O)O)cc2c1nc(Cc1ccc3cc1COCCc1cc(C#N)ccc1COc1ccnc-3n1)n2C[C@@H]1CCO1 [Example 51, (S)-2-((5^4-Cyano-3,8-dioxa-2(2,4)-pyrimidina-1(1,3),5(1,2)-dibenzenacyclononaphane-1^4-yl)methyl)-4-methoxy-1-(oxetan-2-ylmethyl)-1H-benzo[d]imidazole-6-carboxylic acid] | 41 nM | 96.7% | 152 nM | 77.1% |

The remaining compounds from weak to strong by EC50 (human GLP-1R [1]), led by results:

| EC50 (human GLP-1R [1]) | Emax (human GLP-1R [1]) | EC50 (human GLP-1R [2]) | Emax (human GLP-1R [2]) | Structure (SMILES) |
| --- | --- | --- | --- | --- |
| 262 nM | 92.4% | 562 nM | 59.2% | COc1ccc(-c2ccc3c(c2)CCCOc2cc(ccc2Cc2nc4ccc(C(=O)O)cc4n2C[C@@H]2CCO2)-c2cccc(n2)OC3)cn1 [Example 29, (S)-2-((5^4-(6-Methoxypyridin-3-yl)-3,9-dioxa-2(2,6)-pyridina-1(1,3),5(1,2)-dibenzenacyclononaphane-1^4-yl)methyl)-1-(oxetan-2-ylmethyl)-1H-benzo[d]imidazole-6-carboxylic acid] |
| 179 nM | 103% | 506 nM | 79.7% | O=C(O)c1ccc2nc(Cc3ccc4cc3OCCCc3cc(-c5cccnc5)ccc3COc3cccc-4n3)n(C[C@@H]3CCO3)c2c1 [Example 37, (S)-1-(Oxetan-2-ylmethyl)-2-((5^4-(pyridin-3-yl)-3,9-dioxa-2(2,6)-pyridina-1(1,3),5(1,2)-dibenzenacyclononaphane-1^4-yl)methyl)-1H-benzo[d]imidazole-6-carboxylic acid] |
| 102 nM | 99.9% | 359 nM | 78.2% | O=C(O)c1ccc2nc(Cc3ccc4cc3OCCCc3cc(-c5cnn(C6COC6)c5)ccc3COc3cccc-4n3)n(C[C@@H]3CCO3)c2c1 [Example 76, (S)-1-(Oxetan-2-ylmethyl)-2-((5^4-(1-(oxetan-3-yl)-1H-pyrazol-4-yl)-3,9-dioxa-2(2,6)-pyridina-1(1,3),5(1,2)-dibenzenacyclononaphane-1^4-yl)methyl)-1H-benzo[d]imidazole-6-carboxylic acid] |
| 95.8 nM | 99.8% | 248 nM | 74.1% | Nc1cc(-c2ccc3c(c2)CCCOc2cc(ccc2Cc2nc4ccc(C(=O)O)cc4n2C[C@@H]2CCO2)-c2cccc(n2)OC3)ccn1 [Example 78, (S)-2-((5^4-(2-Aminopyridin-4-yl)-3,9-dioxa-2(2,6)-pyridina-1(1,3),5(1,2)-dibenzenacyclononaphane-1^4-yl)methyl)-1-(oxetan-2-ylmethyl)-1H-benzo[d]imidazole-6-carboxylic acid] |
| 29.9 nM | 101% | 112 nM | 81.1% | CCn1cncc1Cn1c(Cc2ccc3cc2OCCCc2cc(C#N)ccc2COc2cccc-3n2)nc2c(OC)cc(C(=O)O)cc21 [Example 63, 2-((5^4-Cyano-3,9-dioxa-2(2,6)-pyridina-1(1,3),5(1,2)-dibenzenacyclononaphane-1^4-yl)methyl)-1-((1-ethyl-1H-imidazol-5-yl)methyl)-4-methoxy-1H-benzo[d]imidazole-6-carboxylic acid] |
| 21.3 nM | 106% | 68.5 nM | 84.1% | O=C(O)c1ccc2nc(Cc3ccc4cc3OCCCc3cc(-n5ccnc5)ccc3COc3cccc-4n3)n(C[C@@H]3CCO3)c2c1 [Example 73, (S)-2-((5^4-(1H-Imidazol-1-yl)-3,9-dioxa-2(2,6)-pyridina-1(1,3),5(1,2)-dibenzenacyclononaphane-1^4-yl)methyl)-1-(oxetan-2-ylmethyl)-1H-benzo[d]imidazole-6-carboxylic acid] |
| 18.1 nM | 110% | 79.1 nM | 93.2% | N#Cc1ccc2c(c1)CCOCc1cc(ccc1Cc1nc3c(F)cc(C(=O)O)cc3n1C[C@@H]1CCO1)-c1cccc(n1)OC2 [Example 61, (S)-2-((5^4-cyano-3,8-dioxa-2(2,6)-pyridina-1(1,3),5(1,2)-dibenzenacyclononaphane-1^4-yl)methyl)-4-fluoro-1-(oxetan-2-ylmethyl)-1H-benzo[d]imidazole-6-carboxylic acid] |
| 6.58 nM | 109% | 22.3 nM | 81.6% | COc1cc(C(=O)O)cc2c1nc(Cc1ccc3cc1OCCCc1cc(C#N)ccc1COc1cccc-3n1)n2C[C@@H]1CCO1 [Example 5, (S)-2-((5^4-Cyano-3,9-dioxa-2(2,6)-pyridina-1(1,3),5(1,2)-dibenzenacyclononaphane-1^4-yl)methyl)-4-methoxy-1-(oxetan-2-ylmethyl)-1H-benzo[d]imidazole-6-carboxylic acid] |
| 4.14 nM | 112% | 16.4 nM | 85.5% | COc1cc(C(=O)O)cc2c1nc(Cc1cc(F)c3cc1CCOCc1cc(C#N)ccc1COc1cccc-3n1)n2C[C@@H]1CCO1 [Example 44, (S)-2-((5^4-Cyano-1^6-fluoro-3,7-dioxa-2(2,6)-pyridina-1(1,3),5(1,2)-dibenzenacyclononaphane-1^4-yl)methyl)-4-methoxy-1-(oxetan-2-ylmethyl)-1H-benzo[d]imidazole-6-carboxylic acid] |
| 0.633 nM | 109% | 1.62 nM | 90% | COCCOc1cc(C(=O)O)cc2c1nc(Cc1cc(F)c3cc1COCCc1cc(ccc1C#N)COc1cccc-3n1)n2C[C@@H]1CCO1 [Example 58, (S)-2-((5^4-Cyano-1^6-fluoro-3,8-dioxa-2(2,6)-pyridina-1,5(1,3)-dibenzenacyclononaphane-1^4-yl)methyl)-4-(2-methoxyethoxy)-1-(oxetan-2-ylmethyl)-1H-benzo[d]imidazole-6-carboxylic acid] |
